Measurements taken from US20220033448A1, “METHODS FOR AGGREGATION OF PROTEINS” (priority 2011, published 2022).
No end group written: not given here.

Tests used:
Bacillus subtilis = test: MIC, microbroth dilution; details: planktonic, 18 hours
Procedure: Bacteria were grown in a shaking incubator at 37° C. and 160rpm in 50 ml BHI , using individual colonies retrieved from a fresh overnight TSA-sheep blood plate. The cultures were grown to a density of approximately 1×10^8cells/ml and then diluted to 5×10^5 cells/ml in CAMHB (Mc Farland 0.5). Each well contained 100p.I (50p.I of peptide containing MHB plus 50 μl inoculum). The final cell density was 1×10^5 to 5×10^5/ml. After addition of the cell suspension, plates were incubated at 37° C. for 18 to 24 hours. The optical density at 590 nm (OD590) of each well was measured after 5 seconds of shaking the plate using Perkin Elmer spectrophotometer (1420 Multilabel Counter Vicotr 3). […] Each well, where no growth was observed, was also plated on TSA-sheep blood agar plates, incubated at 37° C. overnight and visually inspected.

Candida albicans SC5314 = test: Adherence of C. albicans SC5314 to epithelial cell line TR-146; format: cell-based; details: adhesion 1 h
Procedure: As discussed herein before, C. albicans Als3 also plays a role in adherence and invasion to epithelial and endothelial cells. […] Here we investigated the effect of external application of interferor peptide F9 on C. albicans SC5314 adherence and invasion to epithelial cells. Thereto, Candida cells were incubated together with the human cells (epithelial cell line TR-146) in the presence of peptide F9 during adhesion (1 h) or invasion (3 h). The amount of adhered and internalized cells was determined by counting using epifluorescence.
C. albicans strains were grown in liquid YPD, succinate, pH 6.5 or YNB (4% D-glucose) at 30° C. in a shaking incubator overnight. Candida cells were washed three times with 1× PBS and determined to a final concentration 1×10^5 cells/ml in DMEM containing NaHCO3, D-glucose, Na-pyruvate and stable glutamine without FCS. The TR-146 were grown on 12 mm glass slides and inoculated with Candida cells. Different concentrations of positive peptide F9 (50 μM, 10 μM and 2.5 μM) and negative peptides F9_negat, 13 and 20 (50 μM) were tested on Candida adhesion to epithelial cells. Adhesion assay was allowed for 1 h at 37° C., 5% CO2. After adhesion, the cells were washed three times with 1× PBS to remove non-adherent cells and then fixed with 4% paraformaldehyde for 30 min at room temperature.
After extensive rinsing with 1× PBS, the cells were permeabilized in 0.5% Triton X-100 in water for 5 min, and subsequently stained with calcofluor white (dilution 1:100) for 15 min and further washed with water, three times for 10 min, at 30° C., 180 rpm. Coverslips were mounted inverted on a microscope slide and quantified under epifluorescence using a filter set to detect calcofluor white (filter for DAPI) (Leica DFC350 FX, Mannheim, Germany). The percentage of adhered cells was calculated as an average of attached Candida cells on one hundred areas spread over the entire surface of the coverslip.

Sequence: RILLGLIRRGSRILLGLIRR [C30]
- MIC (Bacillus subtilis; Bacillus subtilis ATCC 6051): Bacillus subtilis ATCC 6051: 1.5 μg/ml
- MIC (Bacillus subtilis; Bacillus subtilis IP 5832): Bacillus subtilis IP 5832: 6 μg/ml

Sequence: RKLLFNLGSRNGIVIVATTR [F9]
- decrease of Candida adhesion to epithelial cells compared to the control (Candida albicans SC5314; 2.5 μM): ~15%
- decrease of Candida adhesion to epithelial cells compared to the control (Candida albicans SC5314; 10 μM): approximately 20%
- decrease of Candida adhesion to epithelial cells compared to the control (Candida albicans SC5314; 50 μM): 40%
